Reference: PubChem BioAssay (NCI)
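These data come from cells grown in 96-well plates and exposed to compound for 48 hours at five concentrations. Abbreviation: GI50, concentration required for 50% inhibition of growth. TGI is the concentration that stops growth completely.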

Assays:
Assay in all cases: NCI tumour cell line growth inhibition, 48 h
MDA-MB-231 breast = tested on: MDA-MB-231 breast
NCI-H23 lung = tested on: NCI-H23 lung
MDA-N = tested on: MDA-N
IGROV1 ovarian = tested on: IGROV1 ovarian
SK-OV-3 ovarian = tested on: SK-OV-3 ovarian
SF-268 CNS = tested on: SF-268 CNS
PC-3 prostate = tested on: PC-3 prostate
SNB-19 CNS = tested on: SNB-19 CNS
RPMI-8226 leukemia = tested on: RPMI-8226 leukemia
TK-10 renal = tested on: TK-10 renal

Structure (SMILES)	TGI (MDA-MB-231 breast) [µM]	TGI (NCI-H23 lung) [µM]	TGI (MDA-N) [µM]	TGI (IGROV1 ovarian) [µM]	TGI (SK-OV-3 ovarian) [µM]	TGI (SF-268 CNS) [µM]	TGI (PC-3 prostate) [µM]	TGI (SNB-19 CNS) [µM]	TGI (RPMI-8226 leukemia) [µM]	TGI (TK-10 renal) [µM]	GI50 (MDA-MB-231 breast) [µM]	GI50 (NCI-H23 lung) [µM]	GI50 (IGROV1 ovarian) [µM]	GI50 (SK-OV-3 ovarian) [µM]	GI50 (SF-268 CNS) [µM]	GI50 (PC-3 prostate) [µM]	GI50 (SNB-19 CNS) [µM]	GI50 (RPMI-8226 leukemia) [µM]	GI50 (TK-10 renal) [µM]
C[C@H]1SC(c2ccc(Cl)cc2Cl)N(NC(=O)c2ccncc2)C1=O (stereo partly drawn)	> 100	> 100	57.5	> 100	> 100	72.3	29.7	> 100	> 100	–	–	–	–	–	–	–	–	–	–
C1=C\SS/C=C\SS/1	–	> 100	> 100	62.5	> 100	> 100	> 100	> 100	71.8	> 100	–	–	–	–	–	–	–	–	–
Nc1nn2c(=O)c3ccccc3nc2s1	–	> 100	> 100	> 100	> 100	> 100	> 100	> 100	> 100	> 100	–	–	–	–	–	–	–	–	–
O=C(c1ccncc1)C1C(=O)c2ccccc2C1C1(O)c2ccccc2CC1C(O)c1ccncc1 (stereo not drawn)	> 100	> 100	38.9	> 100	> 100	> 100	–	> 100	90.2	> 100	–	–	–	–	–	–	–	–	–
CC1(C)[C@H]2CC[C@@]13C(=O)N1C(=O)O[C@@H]([C@H]1Cl)C(Cl)(COCc1ccccc1)C(=O)OCCO[C@H]3C2 (stereo partly drawn)	–	> 100	> 100	> 100	> 100	> 100	> 100	> 100	> 100	–	–	–	–	–	–	–	–	–	–
O=c1cc(N2CCCC2)[nH]c(=O)n1-c1ccccc1	> 100	> 100	–	> 100	–	–	> 100	> 100	> 100	> 100	–	–	–	–	–	–	–	–	–
CCOC(=O)c1nnsc1NN	> 100	> 100	> 100	> 100	> 100	> 100	> 100	> 100	–	> 100	–	–	–	–	–	–	–	–	–
CC12CCCC3(CC(=O)C(C)(C)C3C(=O)C1)C2 (stereo not drawn)	–	> 100	> 100	> 100	> 100	> 100	> 100	> 100	> 100	> 100	–	–	–	–	–	–	–	–	–
C=C1c2nc3ccccc3n2C=C(c2ccc(Cl)cc2)N1c1ccc(OC)cc1	53.6	22.9	45.7	26.1	23.7	–	45.5	12.7	> 100	13.2	–	–	–	–	–	–	–	–	–
CCCCCCCCCc1nn2c(Cc3ccccc3)nnc2s1	54.5	38.8	38.7	–	66.7	32.4	51	36.1	77.2	54.5	–	–	–	–	–	–	–	–	–
CCOC(=O)c1nc2cc(C(F)(F)F)ccc2nc1Nc1ccc(C(=O)NC(C(=O)OCC)C(=O)OCC)cc1	50.4	> 100	–	54.2	42.1	53.6	> 100	55.3	65.8	97.4	–	–	–	–	–	–	–	–	–
CN(C)CCC(=O)/C=C\c1ccccc1	–	–	–	62	–	–	–	> 100	34.4	32.9	–	–	–	–	–	–	–	–	–
Cc1ccc(/C=C2\Cc3c(C)cc(C)cc3C2=O)c(C(=O)O)c1	–	> 100	> 100	> 100	–	> 100	> 100	> 100	53.1	> 100	–	–	–	–	–	–	–	–	–
CCOC(=O)C#Cc1ccccc1	95.1	34.7	45	–	89.6	–	31.3	> 100	35.2	59.9	–	–	–	–	–	–	–	–	–
COc1ccc(C2c3cc4c(cc3OC(N3CCOCC3)C2C)OCO4)c(OC)c1OC (stereo not drawn)	–	> 100	8.42	70.7	–	79.8	88.7	39.1	39.8	70.5	–	–	–	–	–	–	–	–	–
O=c1[nH]nc(Cc2ccccc2)n1/N=C/c1ccncc1	> 100	> 100	> 100	> 100	–	> 100	> 100	> 100	> 100	> 100	–	–	–	–	–	–	–	–	–
COc1ccc(N(C(=O)Nc2ccc(Cl)c(Cl)c2)C2c3cccn3C(=O)N2c2ccc(Cl)c(Cl)c2)cc1 (stereo not drawn)	> 100	> 100	> 100	> 100	–	> 100	> 100	> 100	> 100	> 100	–	–	–	–	–	–	–	–	–
CCOC(=O)C1CCC(=O)N1C(=O)c1ccccc1 (stereo not drawn)	> 100	> 100	–	> 100	–	> 100	> 100	> 100	> 100	> 100	–	–	–	–	–	–	–	–	–
COc1ccc(CN2C3CC2CN(c2ccc(-c4cc(OCC(C)(C)O)cn5ncc(C#N)c45)cn2)C3)cn1	> 100	> 100	–	> 100	> 100	> 100	> 100	> 100	> 100	> 100	8.04	17.8	4.17	5.64	4.6	16.3	20.7	> 100	10.5
COc1cc(NC(C)=O)ccc1C(=O)NN1C(=O)/C(=C/c2ccco2)N=C1c1ccccc1	–	> 50	> 50	> 50	> 50	> 50	> 50	> 50	31.8	–	–	–	–	–	–	–	–	–	–
COc1nc(C#CC(C)(C)C)nc(OC)n1	59.8	68.5	> 100	> 100	> 100	78.6	> 100	> 100	–	57.8	–	–	–	–	–	–	–	–	–
COc1cc2ccc1OCc1cccc(n1)COc1ccc(cc1OC)C=Nc1ccc(cc1)N=C2	> 100	> 100	> 100	> 100	> 100	> 100	> 100	> 100	–	> 100	–	–	–	–	–	–	–	–	–
COc1cc2c(c(O)c1OC)C(=O)C(Cc1ccc(O)cc1)CO2 (stereo not drawn)	77.4	> 100	–	> 100	61.3	> 100	> 100	74.1	60.3	> 100	–	–	–	–	–	–	–	–	–
